# Laboratory results as given in ChEMBL document CHEMBL3797052 (Eur J Med Chem, 2016).
# Test system: not listed separately
# Assay: Antiproliferative activity against human COLO205 cells assessed as growth inhibition after 48 hrs by sulforhodamine B assay
# Type: functional
# Conditions: COLO 205, 48 h
Structure (SMILES),GI50 [µM],TGI [µM]
CNC(=O)c1cc(Oc2ccc3nc(NC(=O)Nc4ccc(Cl)c(Cl)c4)sc3c2)ccn1,4.25,> 100

# Same assay, conditions: COLO 205, 48 h, read-out: LC50 (the source's name)
row,Structure (SMILES),CC50 [µM]
1,CNC(=O)c1cc(Oc2ccc3nc(NC(=O)Nc4ccc(Cl)c(C(F)(F)F)c4)sc3c2)ccn1,> 100
2,CNC(=O)c1cc(Oc2ccc3nc(NC(=O)Nc4ccc(Cl)c(Cl)c4)sc3c2)ccn1,> 100

# Test system: U-251
# Assay: Antiproliferative activity against human U251 cells assessed as cell growth at 10^-4 M after 48 hrs by sulforhodamine B assay
# Type: functional
# Conditions: U-251, 48 h, read-out: Activity
row,Structure (SMILES),growth at 100 µM [%]
1,CNC(=O)c1cc(Oc2ccc3nc(NC(=O)Nc4ccc(Cl)c(C(F)(F)F)c4)sc3c2)ccn1,-34
2,CNC(=O)c1cc(Oc2ccc3nc(NC(=O)Nc4ccc(Cl)c(Cl)c4)sc3c2)ccn1,-90

# Test system: MDA-MB-468
# Assay: Antiproliferative activity against human MDA-MB-468 cells assessed as cell growth at […] after 48 hrs by sulforhodamine B assay
# Type: functional
# Conditions: MDA-MB-468, 48 h, read-out: Activity
row,Structure (SMILES),growth at 0.01 µM [%]
1,CNC(=O)c1cc(Oc2ccc3nc(NC(=O)Nc4ccc(Cl)c(C(F)(F)F)c4)sc3c2)ccn1,86
2,CNC(=O)c1cc(Oc2ccc3nc(NC(=O)Nc4ccc(Cl)c(Cl)c4)sc3c2)ccn1,94

# Test system: not listed separately
# Assay: Antiproliferative activity against human OVCAR5 cells assessed as growth inhibition after 48 hrs by sulforhodamine B assay
# Type: functional
# Conditions: OVCAR-5, 48 h
Structure (SMILES),GI50 [µM],TGI [µM]
CNC(=O)c1cc(Oc2ccc3nc(NC(=O)Nc4ccc(Cl)c(C(F)(F)F)c4)sc3c2)ccn1,2.46,7.55

# Same assay, conditions: OVCAR-5, 48 h, read-out: LC50 (the source's name)
row,Structure (SMILES),CC50 [µM]
1,CNC(=O)c1cc(Oc2ccc3nc(NC(=O)Nc4ccc(Cl)c(C(F)(F)F)c4)sc3c2)ccn1,> 100

# Test system: not listed separately
# Assay: Antiproliferative activity against human Hs 578T cells assessed as cell growth at 10^-8 M after 48 hrs by sulforhodamine B assay
# Type: functional
# Conditions: read-out: Activity
row,Structure (SMILES),growth at 0.01 µM [%]
1,CNC(=O)c1cc(Oc2ccc3nc(NC(=O)Nc4ccc(Cl)c(C(F)(F)F)c4)sc3c2)ccn1,92
2,CNC(=O)c1cc(Oc2ccc3nc(NC(=O)Nc4ccc(Cl)c(Cl)c4)sc3c2)ccn1,100

# Test system: not listed separately
# Assay: Antiproliferative activity against human SF539 cells assessed as cell growth at 10^-8 M after 48 hrs by sulforhodamine B assay
# Type: functional
# Conditions: SF-539, 48 h, read-out: Activity
row,Structure (SMILES),growth at 0.01 µM [%]
1,CNC(=O)c1cc(Oc2ccc3nc(NC(=O)Nc4ccc(Cl)c(C(F)(F)F)c4)sc3c2)ccn1,97
2,CNC(=O)c1cc(Oc2ccc3nc(NC(=O)Nc4ccc(Cl)c(Cl)c4)sc3c2)ccn1,92

# Test system: not listed separately
# Assay: Antiproliferative activity against human IGROV1 cells assessed as cell growth at 10^-8 M after 48 hrs by sulforhodamine B assay
# Type: functional
# Conditions: IGROV-1, 48 h, read-out: Activity
row,Structure (SMILES),growth at 0.01 µM [%]
1,CNC(=O)c1cc(Oc2ccc3nc(NC(=O)Nc4ccc(Cl)c(C(F)(F)F)c4)sc3c2)ccn1,102
2,CNC(=O)c1cc(Oc2ccc3nc(NC(=O)Nc4ccc(Cl)c(Cl)c4)sc3c2)ccn1,99

# Test system: NCI-H226
# Assay: Antiproliferative activity against human NCI-H226 cells assessed as cell growth at 10^-4 M after 48 hrs by sulforhodamine B assay
# Type: functional
# Conditions: NCI-H226, 48 h, read-out: Activity
row,Structure (SMILES),growth at 100 µM [%]
1,CNC(=O)c1cc(Oc2ccc3nc(NC(=O)Nc4ccc(Cl)c(C(F)(F)F)c4)sc3c2)ccn1,-25
2,CNC(=O)c1cc(Oc2ccc3nc(NC(=O)Nc4ccc(Cl)c(Cl)c4)sc3c2)ccn1,-59

# Test system: not listed separately
# Assay: Antiproliferative activity against human SW620 cells assessed as cell growth at 10^-6 M after 48 hrs by sulforhodamine B assay
# Type: functional
# Conditions: SW-620, 48 h, read-out: Activity
row,Structure (SMILES),growth at 1 µM [%]
1,CNC(=O)c1cc(Oc2ccc3nc(NC(=O)Nc4ccc(Cl)c(C(F)(F)F)c4)sc3c2)ccn1,91
2,CNC(=O)c1cc(Oc2ccc3nc(NC(=O)Nc4ccc(Cl)c(Cl)c4)sc3c2)ccn1,128

# Test system: not listed separately
# Assay: Antiproliferative activity against human HCC2998 cells assessed as cell growth at 10^-7 M after 48 hrs by sulforhodamine B assay
# Type: functional
# Conditions: HCC 2998, 48 h, read-out: Activity
row,Structure (SMILES),growth at 0.1 µM [%]
1,CNC(=O)c1cc(Oc2ccc3nc(NC(=O)Nc4ccc(Cl)c(C(F)(F)F)c4)sc3c2)ccn1,108
2,CNC(=O)c1cc(Oc2ccc3nc(NC(=O)Nc4ccc(Cl)c(Cl)c4)sc3c2)ccn1,101

# Test system: NCI-H322M
# Assay: Antiproliferative activity against human NCI-H322M cells assessed as cell growth at 10^-6 M after 48 hrs by sulforhodamine B assay
# Type: functional
# Conditions: read-out: Activity
row,Structure (SMILES),growth at 1 µM [%]
1,CNC(=O)c1cc(Oc2ccc3nc(NC(=O)Nc4ccc(Cl)c(C(F)(F)F)c4)sc3c2)ccn1,96
2,CNC(=O)c1cc(Oc2ccc3nc(NC(=O)Nc4ccc(Cl)c(Cl)c4)sc3c2)ccn1,84

# Test system: not listed separately
# Assay: Antiproliferative activity against human OVCAR3 cells assessed as cell growth at 10^-7 M after 48 hrs by sulforhodamine B assay
# Type: functional
# Conditions: OVCAR-3, 48 h, read-out: Activity
row,Structure (SMILES),growth at 0.1 µM [%]
1,CNC(=O)c1cc(Oc2ccc3nc(NC(=O)Nc4ccc(Cl)c(C(F)(F)F)c4)sc3c2)ccn1,111
2,CNC(=O)c1cc(Oc2ccc3nc(NC(=O)Nc4ccc(Cl)c(Cl)c4)sc3c2)ccn1,102

# Test system: not listed separately
# Assay: Antiproliferative activity against human OVCAR3 cells assessed as cell growth at 10^-8 M after 48 hrs by sulforhodamine B assay
# Type: functional
# Conditions: OVCAR-3, 48 h, read-out: Activity
row,Structure (SMILES),growth at 0.01 µM [%]
1,CNC(=O)c1cc(Oc2ccc3nc(NC(=O)Nc4ccc(Cl)c(C(F)(F)F)c4)sc3c2)ccn1,109
2,CNC(=O)c1cc(Oc2ccc3nc(NC(=O)Nc4ccc(Cl)c(Cl)c4)sc3c2)ccn1,101

# Test system: not listed separately
# Assay: Antiproliferative activity against human HOP92 cells assessed as cell growth at 10^-6 M after 48 hrs by sulforhodamine B assay
# Type: functional
# Conditions: HOP-92, 48 h, read-out: Activity
row,Structure (SMILES),growth at 1 µM [%]
1,CNC(=O)c1cc(Oc2ccc3nc(NC(=O)Nc4ccc(Cl)c(C(F)(F)F)c4)sc3c2)ccn1,57
2,CNC(=O)c1cc(Oc2ccc3nc(NC(=O)Nc4ccc(Cl)c(Cl)c4)sc3c2)ccn1,119

# Test system: MDA-MB-435
# Assay: Antiproliferative activity against human MDA-MB-435 cells assessed as cell growth at 10^-7 M after 48 hrs by sulforhodamine B assay
# Type: functional
# Conditions: MDA-MB-435, 48 h, read-out: Activity
row,Structure (SMILES),growth at 0.1 µM [%]
1,CNC(=O)c1cc(Oc2ccc3nc(NC(=O)Nc4ccc(Cl)c(C(F)(F)F)c4)sc3c2)ccn1,92
2,CNC(=O)c1cc(Oc2ccc3nc(NC(=O)Nc4ccc(Cl)c(Cl)c4)sc3c2)ccn1,95

# Test system: SK-MEL-5
# Assay: Antiproliferative activity against human SK-MEL-5 cells assessed as cell growth at 10^-8 M after 48 hrs by sulforhodamine B assay
# Type: functional
# Conditions: SK-MEL-5, 48 h, read-out: Activity
row,Structure (SMILES),growth at 0.01 µM [%]
1,CNC(=O)c1cc(Oc2ccc3nc(NC(=O)Nc4ccc(Cl)c(C(F)(F)F)c4)sc3c2)ccn1,93
2,CNC(=O)c1cc(Oc2ccc3nc(NC(=O)Nc4ccc(Cl)c(Cl)c4)sc3c2)ccn1,99

# Test system: not listed separately
# Assay: Antiproliferative activity against human OVCAR3 cells assessed as cell growth at 10^-6 M after 48 hrs by sulforhodamine B assay
# Type: functional
# Conditions: OVCAR-3, 48 h, read-out: Activity
row,Structure (SMILES),growth at 1 µM [%]
1,CNC(=O)c1cc(Oc2ccc3nc(NC(=O)Nc4ccc(Cl)c(C(F)(F)F)c4)sc3c2)ccn1,108
2,CNC(=O)c1cc(Oc2ccc3nc(NC(=O)Nc4ccc(Cl)c(Cl)c4)sc3c2)ccn1,99

# Test system: 786-0
# Assay: Antiproliferative activity against human 786-0 cells assessed as growth inhibition after 48 hrs by sulforhodamine B assay
# Type: functional
# Conditions: 786-0, 48 h
Structure (SMILES),GI50 [µM],LC50 [µM],TGI [µM]
CNC(=O)c1cc(Oc2ccc3nc(NC(=O)Nc4ccc(Cl)c(C(F)(F)F)c4)sc3c2)ccn1,1.79,6.48,3.4
CNC(=O)c1cc(Oc2ccc3nc(NC(=O)Nc4ccc(Cl)c(Cl)c4)sc3c2)ccn1,2.26,21.5,5.11
